Values of other authors as cited in patent US20090304869A1, “Peptides Having an Ace Inhibiting Effect” (priority 2005, published 2009).

Tests used:
ACE = ACE (Homo sapiens, UniProt P12821); settings: peptides in fermented milk products
[1] = in sour milk, hypertensive humans

Sequence of ACE (P12821 30-1306, species assumed): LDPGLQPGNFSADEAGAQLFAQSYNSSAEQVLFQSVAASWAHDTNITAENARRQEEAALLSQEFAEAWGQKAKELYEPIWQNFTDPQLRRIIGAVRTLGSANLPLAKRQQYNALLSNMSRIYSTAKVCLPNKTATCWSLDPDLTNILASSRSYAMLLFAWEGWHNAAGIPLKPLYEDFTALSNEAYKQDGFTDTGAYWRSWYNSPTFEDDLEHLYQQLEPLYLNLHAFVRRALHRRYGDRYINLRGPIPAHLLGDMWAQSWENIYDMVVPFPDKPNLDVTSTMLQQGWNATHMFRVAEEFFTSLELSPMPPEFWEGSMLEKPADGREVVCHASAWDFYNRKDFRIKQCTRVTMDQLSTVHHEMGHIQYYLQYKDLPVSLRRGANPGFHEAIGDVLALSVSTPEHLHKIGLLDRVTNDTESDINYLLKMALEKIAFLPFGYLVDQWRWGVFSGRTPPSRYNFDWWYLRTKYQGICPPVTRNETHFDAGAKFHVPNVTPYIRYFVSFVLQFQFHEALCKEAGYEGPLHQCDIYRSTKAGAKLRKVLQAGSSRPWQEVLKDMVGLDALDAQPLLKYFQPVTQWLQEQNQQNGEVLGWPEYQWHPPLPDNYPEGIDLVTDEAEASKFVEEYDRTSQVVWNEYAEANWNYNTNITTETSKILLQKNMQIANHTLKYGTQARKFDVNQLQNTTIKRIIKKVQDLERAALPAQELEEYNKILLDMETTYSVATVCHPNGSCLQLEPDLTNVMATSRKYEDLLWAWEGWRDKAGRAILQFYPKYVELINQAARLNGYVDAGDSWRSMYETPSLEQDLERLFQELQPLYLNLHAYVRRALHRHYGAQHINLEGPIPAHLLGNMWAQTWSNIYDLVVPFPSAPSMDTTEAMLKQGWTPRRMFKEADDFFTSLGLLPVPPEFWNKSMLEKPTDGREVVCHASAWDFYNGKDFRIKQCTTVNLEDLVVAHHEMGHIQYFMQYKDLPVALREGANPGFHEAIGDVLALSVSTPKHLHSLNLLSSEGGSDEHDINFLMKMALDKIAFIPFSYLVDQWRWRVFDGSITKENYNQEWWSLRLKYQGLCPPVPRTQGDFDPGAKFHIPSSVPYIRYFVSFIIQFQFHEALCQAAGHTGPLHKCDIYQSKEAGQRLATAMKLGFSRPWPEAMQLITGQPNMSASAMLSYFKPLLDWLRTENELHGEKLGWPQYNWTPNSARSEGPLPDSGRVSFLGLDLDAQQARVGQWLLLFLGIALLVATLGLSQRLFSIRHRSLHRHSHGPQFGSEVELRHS

CC[C@H](C)[C@H](N)C(=O)N1CCC[C@H]1C(=O)N1CCC[C@H]1C(=O)O [IPP]
in vitro ACE inhibition (ACE): showed in vitro ACE inhibition
blood pressure lowering effect [1]: blood pressure lowering effect
